Measured values taken from PMC10743905, “Design, Synthesis, and In Vitro and In Vivo Bioactivity Studies of Hydrazide–Hydrazones of 2,4-Dihydroxybenzoic Acid” (International Journal of Molecular Sciences, 2023).
Values after ≈ are worked out from the molar mass of the structure shown.

What was measured:
[1] = system: Staphylococcus aureus ATCC 29213; assay: Broth microdilution MIC/MBC; format: cell-based; settings: for MBC / MIC: ATCC29213
Text: (§1) In vitro antimicrobial activity assays - Methodology
(§2) The examined compounds 1 - 24 were screened in vitro for antibacterial and antifungal activities using the broth microdilution method according to procedure reported earlier by our research group and European Committee on Antimicrobial Susceptibility Testing (EUCAST) and Clinical and Laboratory Standards Institute (CLSI) guidelines against a panel of reference and clinical or saprophytic strains of microorganisms, in-cluding Gram-positive bacteria, Staphylococcus aureus ATCC 43300 (Methicillin Resistant S. aureus – MRSA), Staphylococcus aureus ATCC 29213 (Methicillin Susceptible S. aureus – MSSA), Staphylococcus epidermidis ATCC 12228, Enterococcus faecalis ATCC 29212, Micro-coccus luteus ATCC 10240, Bacillus subtilis ATCC 6633 and Bacillus cereus ATCC 10876), Gram-negative bacteria (Bordetella bronchiseptica ATCC 4617, Escherichia coli ATCC 25922, Klebsiella pneumoniae ATCC 13883, Proteus mirabilis ATCC 12453, Salmonella typhimurium ATCC 14028 and Pseudomonas aeruginosa ATCC 9027) and fungi belonging to yeasts (Can-dida albicans ATCC 10231, Candida albicans ATCC 2091, Candida parapsilosis ATCC 22019, Candida glabrata ATCC 90030 and Candida krusei ATCC 14243). The microorganisms be-longing to ATCC came from American Type Culture Collection, routinely used for the evaluation of antimicrobials. […]
(§3) Samples containing examined compounds were dissolved in dimethyl sulfoxide (DMSO). […]
(§4) Subsequently, the MIC (Minimal Inhibitory Concentration) of the compounds was ex-amined by the microdilution broth method, using their two-fold dilutions in Mueller- […]
(§5) Hinton broth or (for bacteria) and RPMI 1640 broth with MOPS (for fungi) prepared in 96-well polystyrene plates. Final concentrations of the compounds ranged from 1000 to 0.488 µg/ml. Microbial suspensions were prepared in 0.85% NaCl with an optical density of 0.5 McFarland standard. Next each bacterial or fungal suspension was added per each well containing broth and various concentrations of the examined compounds. After incuba-

[2] = system: Proteus mirabilis ATCC 12453; assay: Broth microdilution MIC/MBC; format: cell-based; settings: ATCC12453
Text: as §1, §2, §3, §4, §5

[3] = system: Salmonella typhimurium ATCC 14028; assay: Broth microdilution MIC/MBC; format: cell-based; settings: Salmonella enterica
Text: as §1, §2, §3, §4, §5

[4] = system: Staphylococcus aureus ATCC 43300; assay: Broth microdilution MIC/MBC; format: cell-based; settings: Staphylococcus aureus ATCC 43300 (MRSA)
Text: as §1, §2, §3, §4, §5

[5] = system: Staphylococcus epidermidis ATCC 12228; assay: Broth microdilution MIC/MBC; format: cell-based; settings: for MBC: ATCC12228; for MIC: ATCC12228, read-out: MIC
Text: as §1, §2, §3, §4, §5

[6] = system: Micrococcus luteus ATCC 10240; assay: Broth microdilution MIC/MBC; format: cell-based; settings: for MBC: ATCC10240; for MIC: ATCC10240, read-out: MIC
Text: as §1, §2, §3, §4, §5

[7] = system: Pseudomonas aeruginosa ATCC 9027; assay: Broth microdilution MIC/MBC; format: cell-based; settings: ATCC9027
Text: as §1, §2, §3, §4, §5

[8] = system: Bacillus subtilis ATCC 6633; assay: Broth microdilution MIC/MBC; format: cell-based; settings: for MIC: ATCC6633, read-out: MIC
Text: Detailed procedures are presented in the Supplementary Materials. […]
as §1
as §2, with “antimicrobials. All the used microbial cultures were first subcultured on nu-trient agar or Sabouraud agar at 35°C for 18-24 h or 30°C for 24-48 h for bacteria and fungi,” for “antimicrobials.”
(§6) The surface of Mueller-Hinton agar (for bacteria) and RPMI 1640 with MOPS (for fungi) were inoculated with the suspensions of bacterial or fungal species. Microbial suspensions were prepared in sterile saline with an optical density of McFarland standard scale 0.5.
(§7) Samples containing examined compounds were dissolved in dimethyl sulfoxide (DMSO).
(§8) Furthermore, bacterial and fungal suspensions were put onto Petri dishes with solid me-dia containing 2 mg/mL of the tested compounds followed incubation at 37°C for 24h and 30°C for 48h for bacteria and fungi, respectively. The inhibition of microbial growth was judged by comparison with a control culture prepared without any sample tested. Ciprof-loxacin, vancomycin, nitrofurantoin, cefuroxime, ampicillin or nystatin (Sigma) were used as a reference antibacterial or antifungal compounds, respectively.
as §4, §5

[9] = system: Candida krusei ATCC 14243; assay: Broth microdilution MIC/MFC; format: cell-based; settings: Pichia kudriavzevii, ATCC14243, read-out: MIC
Text: as §1
as §2, with “antimicrobials. All the used microbial cultures were first subcultured on nu-trient agar or Sabouraud agar at 35°C for 18-24 h or 30°C for 24-48 h for bacteria and fungi,” for “antimicrobials.”
as §6, §7, §8, §4, §5

[10] = system: Candida parapsilosis ATCC 22019; assay: Broth microdilution MIC/MFC; format: cell-based; settings: for MIC: ATCC22019, read-out: MIC
Text: as §1
as §2, with “antimicrobials. All the used microbial cultures were first subcultured on nu-trient agar or Sabouraud agar at 35°C for 18-24 h or 30°C for 24-48 h for bacteria and fungi,” for “antimicrobials.”
as §6, §7, §8, §4, §5

[11] = system: Candida albicans ATCC 10231; assay: Broth microdilution MIC/MFC; format: cell-based; settings: for MFC: ATCC10231, read-out: MFC; for MIC: ATCC10231, read-out: MIC
Text: as §1
as §2, with “antimicrobials. All the used microbial cultures were first subcultured on nu-trient agar or Sabouraud agar at 35°C for 18-24 h or 30°C for 24-48 h for bacteria and fungi,” for “antimicrobials.”
as §6, §7, §8, §4, §5

[12] = system: Candida albicans ATCC 2091; assay: Broth microdilution MIC/MFC; format: cell-based; settings: for MFC: ATCC2091, read-out: MFC; for MIC: ATCC2091, read-out: MIC
Text: as §1
as §2, with “antimicrobials. All the used microbial cultures were first subcultured on nu-trient agar or Sabouraud agar at 35°C for 18-24 h or 30°C for 24-48 h for bacteria and fungi,” for “antimicrobials.”
as §6, §7, §8, §4, §5

[13] = system: Candida glabrata ATCC 90030; assay: Broth microdilution MIC/MFC; format: cell-based; settings: Nakaseomyces glabratus, ATCC90030, read-out: MIC
Text: as §1
as §2, with “antimicrobials. All the used microbial cultures were first subcultured on nu-trient agar or Sabouraud agar at 35°C for 18-24 h or 30°C for 24-48 h for bacteria and fungi,” for “antimicrobials.”
as §6, §7, §8, §4, §5

[14] = system: Enterococcus faecalis ATCC 29212; assay: Broth microdilution MIC/MBC; format: cell-based; settings: ATCC29212, read-out: MIC
Text: as §1
as §2, with “antimicrobials. All the used microbial cultures were first subcultured on nu-trient agar or Sabouraud agar at 35°C for 18-24 h or 30°C for 24-48 h for bacteria and fungi,” for “antimicrobials.”
as §6, §7, §8, §4, §5

[15] = system: Bacillus cereus ATCC 10876; assay: Broth microdilution MIC/MBC; format: cell-based; settings: for MBC: ATCC10876; for MIC: ATCC10876, read-out: MIC
Text: as §1
as §2, with “antimicrobials. All the used microbial cultures were first subcultured on nu-trient agar or Sabouraud agar at 35°C for 18-24 h or 30°C for 24-48 h for bacteria and fungi,” for “antimicrobials.”
as §6, §7, §8, §4, §5

[16] = system: Escherichia coli ATCC 25922; assay: Broth microdilution MIC/MBC; format: cell-based; settings: ATCC25922
Text: as §1
as §2, with “antimicrobials. All the used microbial cultures were first subcultured on nu-trient agar or Sabouraud agar at 35°C for 18-24 h or 30°C for 24-48 h for bacteria and fungi,” for “antimicrobials.”
as §6, §7, §8, §4, §5

[17] = system: Klebsiella pneumoniae ATCC 13883; assay: Broth microdilution MIC/MBC; format: cell-based; settings: ATCC13883
Text: as §1
as §2, with “antimicrobials. All the used microbial cultures were first subcultured on nu-trient agar or Sabouraud agar at 35°C for 18-24 h or 30°C for 24-48 h for bacteria and fungi,” for “antimicrobials.”
as §6, §7, §8, §4, §5

[18] = system: Bordetella bronchiseptica ATCC 4617; assay: Broth microdilution MIC/MBC; format: cell-based; settings: ATCC4617
Text: as §1
as §2, with “antimicrobials. All the used microbial cultures were first subcultured on nu-trient agar or Sabouraud agar at 35°C for 18-24 h or 30°C for 24-48 h for bacteria and fungi,” for “antimicrobials.”
as §6, §7, §8, §4, §5

SMILES | MBC/MIC [1] | MBC [1] [µg/mL] | MIC [1] [µg/mL] | MIC [2] [µg/mL] | MIC [3] [µg/mL] | MIC [4] [µg/mL] | MBC/MIC [5] | MBC [5] [µg/mL] | MIC [5] [µg/mL] | MBC/MIC [6] | MBC [6] [µg/mL] | MIC [6] [µg/mL] | MIC [7] [µg/mL] | MIC [8] [µg/mL] | melting point [°C] | MIC [9] [µg/mL] | MIC ([10]; Lodderomyces parapsilosis) [µg/mL] | MFC/MIC [11] | MFC [11] [µg/mL] | MIC [11] [µg/mL] | also measured
CCCOc1ccc(/C=N/NC(=O)c2ccc(O)cc2O)cc1 [Compound 6, 2,4-dihydroxy-N-[(4-propoxyphenyl)methylidene]benzohydrazide] | > 1 | > 1000 | 1000 (≈ 3.18 mM) | > 1000 | > 1000 | 1000 (≈ 3.18 mM) | > 1 | > 1000 | 1000 (≈ 3.18 mM) | > 1 | > 1000 | 1000 (≈ 3.18 mM) | > 1000 | 1000 (≈ 3.18 mM) | 251 | > 1000 | 1000 (≈ 3.18 mM) | > 1 | > 1000 | 1000 (≈ 3.18 mM) | MBC [4]: > 1000 µg/mL; MBC/MIC [4]: > 1; MBC/MIC [8]: > 1; MBC ([8]; ATCC6633): > 1000 µg/mL; MFC/MIC [10]: > 1; MFC ([10]; Lodderomyces parapsilosis, ATCC22019, read-out: MFC): > 1000 µg/mL; MFC/MIC [12]: > 2; MFC [12]: > 1000 µg/mL; MIC [12]: 500 µg/mL (≈ 1.59 mM); MIC [13]: > 1000 µg/mL; MIC [14]: > 1000 µg/mL; MBC/MIC [15]: > 1; MBC [15]: > 1000 µg/mL; MIC [15]: 1000 µg/mL (≈ 3.18 mM); MIC [16]: > 1000 µg/mL; MIC [17]: > 1000 µg/mL; MIC [18]: > 1000 µg/mL
CCCCOc1ccc(/C=N/NC(=O)c2ccc(O)cc2O)cc1 [Compound 7, N-[(4-butoxyphenyl)methylidene]-2,4-dihydroxybenzohydrazide] | > 1 | > 1000 | 1000 (≈ 3.05 mM) | > 1000 | > 1000 | > 1000 | 2 | 1000 (≈ 3.05 mM) | 500 (≈ 1.52 mM) | > 1 | > 1000 | 1000 (≈ 3.05 mM) | > 1000 | > 1000 | 246 | > 1000 | > 1000 | > 1 | > 1000 | 1000 (≈ 3.05 mM) | MFC/MIC [12]: > 2; MFC [12]: > 1000 µg/mL; MIC [12]: 500 µg/mL (≈ 1.52 mM); MIC [13]: > 1000 µg/mL; MIC [14]: > 1000 µg/mL; MBC/MIC [15]: > 1; MBC [15]: > 1000 µg/mL; MIC [15]: 1000 µg/mL (≈ 3.05 mM); MIC [16]: > 1000 µg/mL; MIC [17]: > 1000 µg/mL; MIC [18]: > 1000 µg/mL
